{"source": "patent US10329305B2", "about": "“Amorphous solid form of a BET protein inhibitor” (Incyte Corporation, priority 2015, dated 2019)", "type_in_all_cases": "physicochemical", "key": {"[1]": {"test": "Stability of amorphous Compound 1-(S) under elevated temperature and humidity (Karl-Fischer water content, HPLC/UV purity, XRPD)", "settings": "for Solid Form (XRPD) / Purity 220 nm / Purity 254 nm / Water content: open vial; for Purity 220 nm / Purity 254 nm: HPLC/UV; for Water content: Karl-Fischer", "method": "Table 1 indicates the conditions/time to which the amorphous form was subjected and provides the measured water content (Karl-Fischer analysis) and purity (by HPLC/UV). The HPLC/UV instrument was Agilent HPLC 1100 with an Agilent Zorbax SB-C18, 3.5 μm, 4.6×150 mm column. The HPLC conditions were as follows: column temperature: 40° C.; mobile phase A (MPA): 0.05% (v/v) trifluoroacetic acid (TFA) in water; mobile phase B (MPB): 0.05% (v/v) TFA in acetonitrile; and flow rate: 1 mL/min.\nThe gradient conditions were as follows: […]"}, "[2]": {"test": "Formulation of amorphous Compound 1-(S): solubility in vehicles", "settings": "for solubility: aqueous with cosolvent or surfactant or cyclodextrin, thermodynamic from solid", "description": "Amorphous Compound 1-(S) was formulated as described in the table below. Table 2 indicates the target concentration, final pH, solubility, and some observation of the resulting formulations."}, "[3]": {"test": "Glass transition temperature by modulated DSC (MDSC)", "settings": "ramp rate 2° C./min, 10-150° C.", "method": "The glass transition temperature (Tg) was determined to be 105.8° C. by modulated DSC (MDSC) using TA Instruments Differential Scanning calorimetry, Model Q2000 with autosampler. The MDSC instrument conditions were as follows: modulation temperature amplitude: ±1° C.; modulation: 60 second; ramp rate: 2° C./min; temperature range: 10-150° C.; Tzero aluminum sample pan and lid; and nitrogen gas flow at 50 mL/min."}}, "data": [{"compound": "Cc1noc(C)c1-c1ccc2[nH]c(=O)n3c2c1OC[C@@H]3c1ccccn1", "note": "[Amorphous Compound 1-(S), (4S)-7-(3,5-dimethylisoxazol-4-yl)-4-pyridin-2-yl-4,5-dihydroimidazo[1,5,4-de][1,4]benzoxazin-2(1H)-one]", "values": [{"measurement": "Solid Form (XRPD)", "setting": "[1]; 40° C./75% RH, 0 weeks", "value": "Amorphous"}, {"measurement": "Purity 220 nm", "setting": "[1]; 40° C./75% RH, 0 weeks", "value": 98.22, "unit": "%"}, {"measurement": "Purity 254 nm", "setting": "[1]; 40° C./75% RH, 0 weeks", "value": 97.10, "unit": "%"}, {"measurement": "Water content", "setting": "[1]; 40° C./75% RH, 0 weeks", "value": 1.67, "unit": "%"}, {"measurement": "Purity 220 nm", "setting": "[1]; 40° C./75% RH, 1 week", "value": 98.22, "unit": "%"}, {"measurement": "Purity 254 nm", "setting": "[1]; 40° C./75% RH, 1 week", "value": 97.10, "unit": "%"}, {"measurement": "Water content", "setting": "[1]; 40° C./75% RH, 1 week", "value": 3.39, "unit": "%"}, {"measurement": "Solid Form (XRPD)", "setting": "[1]; 40° C./75% RH, 2 weeks", "value": "Amorphous"}, {"measurement": "Purity 220 nm", "setting": "[1]; 40° C./75% RH, 2 weeks", "value": 98.18, "unit": "%"}, {"measurement": "Purity 254 nm", "setting": "[1]; 40° C./75% RH, 2 weeks", "value": 97.10, "unit": "%"}, {"measurement": "Water content", "setting": "[1]; 40° C./75% RH, 2 weeks", "value": 2.64, "unit": "%"}, {"measurement": "Solid Form (XRPD)", "setting": "[1]; 50° C., 0 weeks", "value": "Amorphous"}, {"measurement": "Purity 220 nm", "setting": "[1]; 50° C., 0 weeks", "value": 98.22, "unit": "%"}, {"measurement": "Purity 254 nm", "setting": "[1]; 50° C., 0 weeks", "value": 97.10, "unit": "%"}, {"measurement": "Water content", "setting": "[1]; 50° C., 0 weeks", "value": 1.67, "unit": "%"}, {"measurement": "Purity 220 nm", "setting": "[1]; 50° C., 1 week", "value": 98.12, "unit": "%"}, {"measurement": "Purity 254 nm", "setting": "[1]; 50° C., 1 week", "value": 97.11, "unit": "%"}, {"measurement": "Water content", "setting": "[1]; 50° C., 1 week", "value": 0.69, "unit": "%"}, {"measurement": "Solid Form (XRPD)", "setting": "[1]; 50° C., 2 weeks", "value": "Amorphous"}, {"measurement": "Purity 220 nm", "setting": "[1]; 50° C., 2 weeks", "value": 98.23, "unit": "%"}, {"measurement": "Purity 254 nm", "setting": "[1]; 50° C., 2 weeks", "value": 97.11, "unit": "%"}, {"measurement": "Water content", "setting": "[1]; 50° C., 2 weeks", "value": 0.43, "unit": "%"}, {"measurement": "physical stability", "setting": "[1]; elevated temperature and humidity", "value": "physically stable"}, {"measurement": "Observations", "setting": "[2]; 0.5% MC in 50 mM citrate, pH 3.0, target concentration 0.5 mg/mL", "value": "solution"}, {"measurement": "Observations", "setting": "[2]; 0.5% MC in 50 mM citrate, pH 3.0, target concentration 2.5 mg/mL", "value": "suspension"}, {"measurement": "Observations", "setting": "[2]; 0.5% MC in water, target concentration 0.5 mg/mL", "value": "solution"}, {"measurement": "Observations", "setting": "[2]; 0.5% MC in water, target concentration 2.5 mg/mL", "value": "suspension"}, {"measurement": "Observations", "setting": "[2]; 10% TPGS in 50 mM citrate, pH 3.0, target concentration 2.5 mg/mL", "value": "solution"}, {"measurement": "solubility", "setting": "[2]; 0.5% MC in 50 mM citrate, pH 3.0, target concentration 0.5 mg/mL, final pH 3.00", "value": "> 500", "unit": "µg/mL"}, {"measurement": "solubility", "setting": "[2]; 0.5% MC in 50 mM citrate, pH 3.0, target concentration 2.5 mg/mL, final pH 3.03", "value": 1150, "unit": "µg/mL"}, {"measurement": "solubility", "setting": "[2]; 0.5% MC in water, target concentration 0.5 mg/mL, final pH 6.76", "value": "> 500", "unit": "µg/mL"}, {"measurement": "solubility", "setting": "[2]; 0.5% MC in water, target concentration 2.5 mg/mL, final pH 7.87", "value": 842, "unit": "µg/mL"}, {"measurement": "solubility", "setting": "[2]; 10% TPGS in 50 mM citrate, pH 3.0, target concentration 2.5 mg/mL, final pH 3.07", "value": "> 2500", "unit": "µg/mL"}, {"measurement": "glass transition temperature (Tg)", "setting": "[3]", "value": 105.8, "unit": "°C"}]}]}
